Laboratory results as given in patent publication US20090082326A1, “SOLUBLE DOSAGE FORMS CONTAINING CEPHEM DERIVATIVES SUITABLE FOR PARENTERAL ADMINISTRATION” (Forest Laboratories Holdings Limited, priority 2007, published 2009).

Legend:
Format in all cases: physicochemical
[1] = pH solubility profile: one hour and three hour kinetic solubility in USP buffers at 0.05 M; details: aqueous buffer, thermodynamic from solid; for solubility at 1 h / solubility at 3 h: USP buffer 0.05 M, 25° C.
[2] = One hour kinetic solubility in acetic acid/sodium acetate ion mixtures; details: 25 °C, thermodynamic from solid
[3] = One hour kinetic solubility in citric acid/sodium citrate ion mixtures; details: 25 °C, aqueous buffer, thermodynamic from solid
[4] = One hour kinetic solubility in DL arginine mixtures; details: 25 °C, aqueous buffer, thermodynamic from solid
[5] = One hour kinetic solubility in L-arginine mixtures; details: 25 °C, aqueous buffer, thermodynamic from solid
[6] = One hour kinetic solubility in histidine mixtures; details: USP buffer with histidine, 25 °C, aqueous buffer, thermodynamic from solid
[7] = Aqueous solubility (stated in the description); details: water

CC(=O)[O-].CCO/N=C(\C(=O)N[C@@H]1C(=O)N2C(C(=O)O)=C(Sc3nc(-c4cc[n+](C)cc4)cs3)CS[C@H]12)c1nsc(NP(=O)(O)O)n1.O [ceftaroline fosamil, (6R,7R)-7-[[2(Z)-ethoxyimino-[5-(phosphonoamino)-1,2,4-thiadiazol-3-yl]acetyl]amino]-3-[[4-(1-methyl-pyridinium-4-yl)thiazol-2-yl]sulfanyl]-8-oxo-5-thia-1-azabicyclo[4.2.0]oct-2-en-2-carboxylate monoacetate monohydrate]
solubility ([1]; USP buffers, 25 °C, over pH about 3 to about 8, 0.05 M): 25 to 36 mg/mL
solubility at 1 h ([1]; pH 1.2): 6 mg/mL
solubility at 3 h ([1]; pH 1.2): 6 mg/mL
solubility at 1 h ([1]; pH 1.9): 9 mg/mL
solubility at 3 h ([1]; pH 1.9): 9 mg/mL
solubility at 1 h ([1]; pH 2.9): 27 mg/mL
solubility at 3 h ([1]; pH 2.9): 27 mg/mL
solubility at 1 h ([1]; pH 3.7): 36 mg/mL
solubility at 3 h ([1]; pH 3.7): 29 mg/mL
solubility at 1 h ([1]; pH 5.3): 26 mg/mL
solubility at 3 h ([1]; pH 5.3): 26 mg/mL
solubility at 1 h ([1]; pH 5.9): 34 mg/mL
solubility at 3 h ([1]; pH 5.9): 29 mg/mL
solubility at 1 h ([1]; pH 7.3): 25 mg/mL
solubility at 3 h ([1]; pH 7.3): 24 mg/mL
solubility at 1 h ([1]; pH 8.0): 29 mg/mL
solubility at 3 h ([1]; pH 8.0): 24 mg/mL
solubility at 1 h ([1]; pH 9.0): 16 mg/mL
solubility at 3 h ([1]; pH 9.0): 12 mg/mL
solubility at 1 h ([2]; USP buffer with acetic acid/sodium acetate, pH 2.9, aqueous buffer, pH 2.9, acetic acid/sodium acetate 1.0 M, 25° C., read-out: Solubility at 1 hr): 213 mg/mL
solubility at 1 h ([2]; USP buffer with acetic acid/sodium acetate, pH 3.1, aqueous buffer, pH 3.1, acetic acid/sodium acetate 0.5 M, 25° C., read-out: Solubility at 1 hr): 126 mg/mL
solubility at 1 h ([2]; USP buffer with acetic acid/sodium acetate, pH 3.2, aqueous buffer, pH 3.2, acetic acid/sodium acetate 2.0 M, 25° C., read-out: Solubility at 1 hr): 152 mg/mL
solubility at 1 h ([2]; USP buffer with acetic acid/sodium acetate, pH 3.9, aqueous buffer, pH 3.9, acetic acid/sodium acetate 1.0 M, 25° C., read-out: Solubility at 1 hr): 237 mg/mL
solubility at 1 h ([2]; USP buffer with acetic acid/sodium acetate, pH 3.9, aqueous buffer, pH 3.9, acetic acid/sodium acetate 2.0 M, 25° C., read-out: Solubility at 1 hr): 273 mg/mL
solubility at 1 h ([2]; USP buffer with acetic acid/sodium acetate, pH 4.2, aqueous buffer, pH 4.2, acetic acid/sodium acetate 0.5 M, 25° C., read-out: Solubility at 1 hr): 158 mg/mL
solubility at 1 h ([2]; USP buffer with acetic acid/sodium acetate, pH 4.7, aqueous buffer, pH 4.7, acetic acid/sodium acetate 2.0 M, 25° C., read-out: Solubility at 1 hr): 271 mg/mL
solubility at 1 h ([2]; USP buffer with acetic acid/sodium acetate, pH 4.8, aqueous buffer, pH 4.8, acetic acid/sodium acetate 1.0 M, 25° C., read-out: Solubility at 1 hr): 235 mg/mL
solubility at 1 h ([2]; USP buffer with acetic acid/sodium acetate, pH 5.7, aqueous buffer, pH 5.7, acetic acid/sodium acetate 1.0 M, 25° C., read-out: Solubility at 1 hr): 212 mg/mL
solubility at 1 h ([2]; USP buffer with acetic acid/sodium acetate, pH 5.9, aqueous buffer, pH 5.9, acetic acid/sodium acetate 2.0 M, 25° C., read-out: Solubility at 1 hr): 244 mg/mL
solubility at 1 h ([2]; USP buffer with acetic acid/sodium acetate, pH 6.9, aqueous buffer, pH 6.9, acetic acid/sodium acetate 1.0 M, 25° C., read-out: Solubility at 1 hr): 207 mg/mL
solubility at 1 h ([2]; USP buffer with acetic acid/sodium acetate, pH 6.9, aqueous buffer, pH 6.9, acetic acid/sodium acetate 2.0 M, 25° C., read-out: Solubility at 1 hr): 225 mg/mL
solubility at 1 h ([2]; USP buffer with acetic acid/sodium acetate, pH 7.7, aqueous buffer, pH 7.7, acetic acid/sodium acetate 1.0 M, 25° C., read-out: Solubility at 1 hr): 205 mg/mL
solubility at 1 h ([2]; USP buffer with acetic acid/sodium acetate, pH 7.8, aqueous buffer, pH 7.8, acetic acid/sodium acetate 2.0 M, 25° C., read-out: Solubility at 1 hr): 212 mg/mL
solubility at 1 h ([2]; USP buffer with acetic acid/sodium acetate, pH 8.2, aqueous buffer, pH 8.2, acetic acid/sodium acetate 0.5 M, 25° C., read-out: Solubility at 1 hr): 125 mg/mL
solubility at 1 h ([2]; USP buffer with acetic acid/sodium acetate, pH 8.9, aqueous buffer, pH 8.9, acetic acid/sodium acetate 0.5 M, 25° C., read-out: Solubility at 1 hr): 50 mg/mL
solubility at 1 h ([2]; USP buffer with acetic acid/sodium acetate, pH 8.9, aqueous buffer, pH 8.9, acetic acid/sodium acetate 1.0 M, 25° C., read-out: Solubility at 1 hr): 102 mg/mL
solubility at 1 h ([2]; USP buffer with acetic acid/sodium acetate, pH 9, aqueous buffer, pH 9.0, acetic acid/sodium acetate 2.0 M, 25° C., read-out: Solubility at 1 hr): 159 mg/mL
solubility at 1 h ([2]; acetic acid/sodium acetate buffer, pH 3, aqueous buffer, pH 3.0, acetic acid/sodium acetate 0.1 M, 25° C., read-out: Solubility at 1 hr): 20 mg/mL
solubility at 1 h ([2]; acetic acid/sodium acetate buffer, pH 3.8, aqueous buffer, pH 3.8, acetic acid/sodium acetate 0.1 M, 25° C., read-out: Solubility at 1 hr): 35 mg/mL
solubility at 1 h ([2]; acetic acid/sodium acetate buffer, pH 4.6, aqueous buffer, pH 4.6, acetic acid/sodium acetate 0.1 M, 25° C., read-out: Solubility at 1 hr): 36 mg/mL
solubility at 1 h ([2]; acetic acid/sodium acetate buffer, pH 4.7, aqueous buffer, pH 4.7, acetic acid/sodium acetate 0.5 M, 25° C., read-out: Solubility at 1 hr): 156 mg/mL
solubility at 1 h ([2]; acetic acid/sodium acetate buffer, pH 5.6, aqueous buffer, pH 5.6, acetic acid/sodium acetate 0.5 M, 25° C., read-out: Solubility at 1 hr): 123 mg/mL
solubility at 1 h ([2]; acetic acid/sodium acetate buffer, pH 6, aqueous buffer, pH 6.0, acetic acid/sodium acetate 0.1 M, 25° C., read-out: Solubility at 1 hr): 36 mg/mL
solubility at 1 h ([2]; acetic acid/sodium acetate buffer, pH 6.7, aqueous buffer, pH 6.7, acetic acid/sodium acetate 0.1 M, 25° C., read-out: Solubility at 1 hr): 31 mg/mL
solubility at 1 h ([2]; acetic acid/sodium acetate buffer, pH 6.8, aqueous buffer, pH 6.8, acetic acid/sodium acetate 0.5 M, 25° C., read-out: Solubility at 1 hr): 133 mg/mL
solubility at 1 h ([2]; acetic acid/sodium acetate buffer, pH 8.2, aqueous buffer, pH 8.2, acetic acid/sodium acetate 0.1 M, 25° C., read-out: Solubility at 1 hr): 31 mg/mL
solubility at 1 h ([2]; acetic acid/sodium acetate buffer, pH 9.4, aqueous buffer, pH 9.4, acetic acid/sodium acetate 0.1 M, 25° C., read-out: Solubility at 1 hr): 34 mg/mL
solubility at 1 h ([2]; acetic acid/sodium acetate ion mixtures, aqueous buffer, at acetate concentrations of 1.0 M and higher, read-out: solubility): > 200 mg/mL
solubility at 1 h ([3]; USP buffer with citric acid/sodium citrate, citric acid/sodium citrate 0.05 M, 25° C., read-out: Solubility at 1 hr): 121 mg/mL
solubility at 1 h ([3]; USP buffer with citric acid/sodium citrate, citric acid/sodium citrate 0.1 M, 25° C., read-out: Solubility at 1 hr): 159 mg/mL
solubility at 1 h ([3]; USP buffer with citric acid/sodium citrate, citric acid/sodium citrate 0.5 M, 25° C., read-out: Solubility at 1 hr): 240 mg/mL
solubility at 1 h ([3]; USP buffer with citric acid/sodium citrate, citric acid/sodium citrate 1.0 M, 25° C., read-out: Solubility at 1 hr): 245 mg/mL
solubility at 1 h ([3]; citric acid/sodium citrate ion mixtures, at citrate concentrations of 0.5 M and higher, read-out: solubility): > 200 mg/mL
solubility at 1 h ([4]; DL arginine mixtures, at DL arginine concentrations of 1.0 M and higher, read-out: solubility): > 200 mg/mL
solubility at 1 h ([4]; USP buffer with DL arginine, DL arginine 0.05 M, 25° C., read-out: Solubility at 1 hr): 13 mg/mL
solubility at 1 h ([4]; USP buffer with DL arginine, DL arginine 0.1 M, 25° C., read-out: Solubility at 1 hr): 19 mg/mL
solubility at 1 h ([4]; USP buffer with DL arginine, DL arginine 0.5 M, 25° C., read-out: Solubility at 1 hr): 142 mg/mL
solubility at 1 h ([4]; USP buffer with DL arginine, DL arginine 1.0 M, 25° C., read-out: Solubility at 1 hr): 233 mg/mL
solubility at 1 h ([4]; USP buffer with DL arginine, DL arginine 2.0 M, 25° C., read-out: Solubility at 1 hr): 226 mg/mL
solubility at 1 h ([5]; L-arginine mixtures, at L-arginine concentrations of 0.5 M and higher, read-out: solubility): > 200 mg/mL
solubility at 1 h ([5]; USP buffer with L-arginine, L-arginine 0.05 M, 25° C., read-out: Solubility at 1 hr): 39 mg/mL
solubility at 1 h ([5]; USP buffer with L-arginine, L-arginine 0.1 M, 25° C., read-out: Solubility at 1 hr): 82 mg/mL
solubility at 1 h ([5]; USP buffer with L-arginine, L-arginine 0.5 M, 25° C., read-out: Solubility at 1 hr): 226 mg/mL
solubility at 1 h ([6]; histidine 0.05 M): 43 mg/mL
solubility at 1 h ([6]; histidine 0.1 M): 75 mg/mL
solubility [7]: ~36 mg/mL
